Experimental data taken from patent US8835392B2, “Mimetic peptides and the use thereof in the form of 20S, 26S and immunoproteasome inhibitors” (Technische Universität, priority 2005, dated 2014).
Where a SMILES comes first, the peptide text is derived from it. The star is where a group is joined. Cbz = O=C(OCc1ccccc1)*; OtBu = CC(C)(C)O*

Tests used:
[1] = biological target: T1, 20S proteasome β5 chymotrypsin-like activity (GLL-MCA) (Homo sapiens, UniProt P20618+P28074); assay: Protease assay, chymotrypsin-like activity of isolated 20S proteasomes (GLL substrate); type: biochemical; conditions: isolated 20S proteasome; GLL-MCA 50 μM; 15 min pre-incubation; read-out: IC50 β5 Chym.-like (L)
T1 construct: Proteasomes were isolated from red blood cells; from tissue; host or cells: red blood cells
Protocol: Proteasomes were isolated from red blood cells. Cells were lysed with DTT (1 mM), and the stroma-free supernatant was loaded on DEAE-sepharose (Toyopearls). Proteasome was eluted with an NaCl-gradient in TEAD (20 mM TrisCl pH 7.4, 1 mM EDTA, 1 mM azide, 1 mM DTT) of 100 to 300 mM NaCl. Proteasome was concentrated using ammonium sulfate-precipitation (between 40 and 70% saturation) and was separated in a 10-40% sucrose-gradient through centrifugation at 40.000 rpm for 16 hours (SW40; L7, Beckman & Coulter). Finally, the proteasomes were purified on a MonoQ-column and eluted with an NaCl-gradient at about 280 mM NaCl. The fractions containing purified proteasome were dialysed against 50 mM NaCl in TEAD and stored on ice. The purity was determined using SDS-PAGE.
Suc-LLVY-AMC, Z-VGR-AMC and LLE-AMC (BACHEM, Calbiochem) was used, in order to determine the chymotrypsin-like, trypsin-like or caspase-like (post-acidic)-activities of the proteasome. Substrate was incubated with proteasome at 37° C. in assay-buffer (20 mM Tris/Cl, pH 7.2, 1 mM EDTA, 1 mM DTT) for one hour. 100 ng proteasome was pre-incubated with 0.01-10 μM of the inhibitor for […]. The reaction was started by the addition of substrate (50 μM). The AMC as released was detected using fluorescence emission at 460 nm (excitation at 390 nm) using a TECAN-fluorimeter. The activity was calculated in fluorescence-units. The inhibition is depicted by IC50-values.
The IC50-values form the inhibition of the proteasome were calculated at increasing concentrations of the inhibitor. The samples were pre-incubated for 15 min in ice. The assay was started through the addition of 50 μM of one of the following fluorogenic peptide substrates:
The release of MCA was determined at 460 nm emission (excitation 390 nm). The IC50-values as calculated for MG132 served as controls.

Fibroblasts = assay: Viability of fibroblasts (control); type: cell-based; conditions: Fibroblast, identical conditions (72 h), read-out: concentration for 50% reduction of the viability
[2] = tested on: Human melanoma cells (MeWo); assay: Cell cycle arrest in MeWo cells, propidium iodide FACS; type: cell-based; conditions: 24 hours
Protocol: A, Human melanoma cells (MeWo) were treated with increasing concentrations of the compounds 15 or 3 (MG132) for 72 hours. The viability of the cells after the treatment with compound 15 (-♦-) and with MG132 (-□-) was detected by a crystal-violet-staining. B and C, MeWo cells were co-cultivated with the compounds 15 and 3 (MG132) for 24 hours. The cells were subsequently fixed in 70% ethanol, and treated with RNAse A. The DNA was stained with propidium iodide (5 μg/ml), and analysed by means of FACS (FACS Calibur flow cytometer; Beckton Dickinson). The statistical significance was detected by the chi-square-test. The relative distribution of the cells that were present in the G1-(black), in the S-(white) or in the G2 phase (hatched) of the cellular cycle is shown for both compounds as examined (15 in B and MG132 in C).
Human melanoma cells (MeWo) were with the compounds 15 and 3 (MG132) for 24 hours co-cultivated. The cells were washed with PBS, in 70% ethanol fixed and subsequently treated with RNAse A. The DNA was stained with propidium iodide (5 μg/ml) and analysed by means of flow-cytometry (FACS Calibur flow cytometer; Beckton Dickinson). The relative dispersion of the cells that were present in different phases of the cell cycle, could thus be detected. […] The statistical significance was detected by the Chi-square test.

[3] = tested on: T2, 20S proteasome of S. cerevisiae; assay: Co-crystallisation with 20S yeast-proteasome
T2 construct: crystals of the 20S proteasome of S. cerevisiae were generated in hanging drops
Protocol: For this, crystals of the 20S proteasome of S. cerevisiae were generated in hanging drops at 24° C., as described earlier (6), and incubated for 60 min with compound 15. The protein concentration as used for the crystallization was 40 mg/ml in Tris-HCl (10 mM, pH 7.5), and EDTA (1 mM). The drops contained 3 μl protein and 2 μl reservoir-solution, containing 30 mM magnesium acetate, 100 mM morpholino ethanesulfonic acid (pH 7.2) and 10% MPD.
The space group belonged to P21 with cellular dimensions of a=135.8 Å, b=300.1 ÅA, c=144.4 Å, and (β=113.1°. Data for 2.8 Å were collected using synchrotron-radiation with λ=1.05 Å on the BW6-beamline of the DESY, Hamburg, Germany. Crystals were soaked in a cryo-protecting buffer (30% MPD, 20 mM magnesium acetate, 100 mM morpholino ethanesulfonic acid pH 6.9), and frozen and in a stream of liquid nitrogen gas at 90K (Oxford Cryo Systems). X-ray-intensities were evaluated using the MOSFILM program-package (Version 6.1), and data reduction was performed with CCP4 (24). The anisotropy of the diffraction was corrected by a general anisotropic temperature factor through comparison of the observed and calculated structure-amplitudes using the program X-PLOR (25). An overall number of 2383416 reflexions that led to 248616 unique reflexions (96.9% completeness), was collected. […]

IC50 [1]: 31 nM
binding mode to Thr1Oγ in crystal structure ([3]; 2.8 Å): covalent hemiacetal bond
specificity for the subunits in crystal structure ([3]; high concentrations of the inhibitors (10 mM)): no specificity for the subunits
Structure (SMILES): CC(C)CC(C=O)NC(=O)C(CC(=O)OC(C)(C)C)NC(=O)C(CC(C)C)NC(=O)OCc1ccccc1 (stereo not drawn) [Compound 15, Z-Leu-Asp(O^tBu)Leu-CHO] (Cbz-Leu-Asp(OtBu)-Leu-aldehyde; configuration not given here)
IC50 (Fibroblasts): 500 to 1000 nM
concentration giving arrest of the cell cycle in the G2 phase [2]: 50 nM
